From ChEMBL document CHEMBL1129872, “GENISTEIN AND FLUORINATED ANALOGS SUPPRESS AGONIST-INDUCED AIRWAY SMOOTH MUSCLE CONTRACTION” (Bioorg Med Chem Lett, 1997) come the findings set out here.

SMILES strings stand for the structures.

As a reminder, the EC50 is the concentration needed to bring the measured effect to its halfway point.

Type in all cases: functional
The species entered for experiment [1] is Cavia porcellus. In words: The inhibitory activity is expressed as percentage of the maximal contraction induced by Ach 3 mM at 3*10e-4 M.
For experiment [2], the species on record is Cavia porcellus. In words: The inhibitory activity is expressed as percentage of the maximal contraction induced by 30 mM KCl dependent on extracellular Ca+2 influx at 10e-4 M.
The species entered for experiment [3] is Cavia porcellus. In words: The inhibitory activity is expressed as percentage of the maximal contraction induced by histamine.
Experiment [4] is filed under the species Cavia porcellus. In words: The inhibitory activity is expressed as percentage of the maximal contraction induced by KCl.
The species named for experiment [5] is Cavia porcellus. The experiment can be described thus: The -logEC50 value of genistein on ACh-precontracted rings, where EC50 is the concentration causing 50% relaxation.
The species entered for experiment [6] is Cavia porcellus. The experiment can be described thus: The inhibitory activity is expressed as percentage of the maximal contraction induced by 30 mM KCl dependent on extracellular Ca+2 influx at 10e-5 M.

`O=c1c(-c2ccc(F)c(F)c2)coc2cc(O)cc(O)c12` gave a Max effect in the experiment filed under Cavia porcellus [1] of 33.

For `O=c1c(-c2ccc(F)cc2F)coc2cc(O)cc(O)c12`, the Max effect in the experiment listed under Cavia porcellus [2] stood at 41; in the experiment listed under Cavia porcellus [3] it was 73; in the experiment filed under Cavia porcellus [4], 78; in the experiment listed under Cavia porcellus [1], 36.

As to `O=c1c(-c2ccc(F)cc2)coc2cc(O)cc(O)c12`, the Max effect in the experiment listed under Cavia porcellus [2] is given as 36; in the experiment filed under Cavia porcellus [3], 69; in the experiment listed under Cavia porcellus [4], 71; in the experiment listed under Cavia porcellus [1], 26.

As for `CC(C)(C)NCC(O)c1ccc(O)c(CO)c1` (configuration not stated) [ALBUTEROL], in the experiment listed under Cavia porcellus [5], the EC50 was 0.0759 µM.

In the experiment listed under Cavia porcellus [5], `Cn1c(=O)c2[nH]cnc2n(C)c1=O` [AMINOPHYLLINE] had an EC50 of 525 µM.

In the case of `O=c1c(-c2ccc(O)cc2)coc2cc(O)cc(O)c12` [GENISTEIN], the Max effect is on record as 79 in the experiment filed under Cavia porcellus [2]; 35 in the experiment listed under Cavia porcellus [6]; 98 in the experiment filed under Cavia porcellus [3]; 88 in the experiment listed under Cavia porcellus [4]; 66 in the experiment filed under Cavia porcellus [1]. In addition, a half-maximal effect in the experiment listed under Cavia porcellus [5] (EC50) was put at 195 µM.
